Where two headings read alike, the source gives them in different places.
Assays:
Puccinia triticina = assay: Wheat Brown Rust fungicidal activity (PUCCRT); assay type: in vivo; settings: for pest or weed control at 100 ppm / pest or weed control at 121.5 g/ha: Puccinia triticina; for pest or weed control at 121.5 g/ha: rate 121.5 g/H
Description: Technical grades of materials were dissolved in acetone, which were then mixed with nine volumes of water containing 110 ppm Triton X-100. The fungicide solutions were applied onto wheat seedlings using an automated booth sprayer to run-off. All sprayed plants were allowed to air dry prior to further handling. All fungicides were evaluated using the aforementioned method for their activity vs. all target diseases. Wheat leaf blotch and brown rust activity were also evaluated using track spray applications, in which case the fungicides were formulated as EC formulations, containing 0.1% Trycol 5941 in the spray solutions. Wheat plants (variety Yuma) were grown from seed in a greenhouse in 50% mineral soil/50% soil-less Metro mix until the first leaf was fully emerged, with 7-10 seedlings per pot. These plants were inoculated with an aqueous spore suspension of Septoria tritici either prior to or after fungicide treatments. After inoculation the plants were kept in 100% relative humidity (one day in a dark dew chamber followed by two to three days in a lighted dew chamber at 20° C.) to permit spores to germinate and infect the leaf. The plants were then transferred to a greenhouse set at 20° C. for disease to develop. When disease symptoms were fully expressed on the 1st leaves of untreated plants, infection levels were assessed on a scale of 0 to 100 percent disease severity. Percent disease control was calculated using the ratio of disease severity on treated plants relative to untreated plants. Evaluation of Fungicidal Activity: Wheat Brown Rust (Puccinia triticina; Synonym: Puccinia recondite f sp. tritici; Bayer code PUCCRT) Wheat plants (variety Yuma) were grown from seed in a greenhouse in 50% mineral soil/50% soil-less Metro mix until the first leaf was fully emerged, with 7-10 seedlings per pot. These plants were inoculated with an aqueous spore suspension of Puccinia triticina either prior to or after fungicide treatments. After inoculation the plants were kept in a dark dew room at 22° C. with 100% relative humidity overnight to permit spores to germinate and infect the leaf. The plants were then transferred to a greenhouse set at 24° C. for disease to develop. Fungicide formulation, application and disease assessment followed the procedures as described in the Example A.

[1] = test system: Mycosphaerella graminicola; Anamorph: Septoria tritici; assay: Leaf Blotch of Wheat fungicidal activity (SEPTTR); assay type: in vivo; settings: for pest or weed control at 100 ppm / pest or weed control at 121.5 g/ha: Zymoseptoria tritici; for pest or weed control at 121.5 g/ha: rate 121.5 g/H
Description: Evaluation of Fungicidal Activity: Leaf Blotch of Wheat (Mycosphaerella graminicola; Anamorph: Septoria tritici; Bayer code […]) Technical grades of materials were dissolved in acetone, which were then mixed with nine volumes of water containing 110 ppm Triton X-100. The fungicide solutions were applied onto wheat seedlings using an automated booth sprayer to run-off. All sprayed plants were allowed to air dry prior to further handling. All fungicides were evaluated using the aforementioned method for their activity vs. all target diseases. Wheat leaf blotch and brown rust activity were also evaluated using track spray applications, in which case the fungicides were formulated as EC formulations, containing 0.1% Trycol 5941 in the spray solutions. Wheat plants (variety Yuma) were grown from seed in a greenhouse in 50% mineral soil/50% soil-less Metro mix until the first leaf was fully emerged, with 7-10 seedlings per pot. These plants were inoculated with an aqueous spore suspension of Septoria tritici either prior to or after fungicide treatments. After inoculation the plants were kept in 100% relative humidity (one day in a dark dew chamber followed by two to three days in a lighted dew chamber at 20° C.) to permit spores to germinate and infect the leaf. The plants were then transferred to a greenhouse set at 20° C. for disease to develop. When disease symptoms were fully expressed on the 1st leaves of untreated plants, infection levels were assessed on a scale of 0 to 100 percent disease severity. Percent disease control was calculated using the ratio of disease severity on treated plants relative to untreated plants.

[2] = 24 h, 1 Day Protectant, rate 100 ppm, read-out: Disease control PUCCRT 1DP
[3] = 24 h, 1 Day Protectant, read-out: Disease control PUCCRT 1DP
[4] = 72 h, 3 Day Curative, rate 100 ppm, read-out: Disease control PUCCRT 3DC
[5] = 72 h, 3 Day Curative, read-out: Disease control PUCCRT 3DC
[6] = 24 h, 1 Day Protectant, rate 100 ppm, read-out: Disease control SEPTTR 1DP
[7] = 24 h, 1 Day Protectant, read-out: Disease control SEPTTR 1DP
[8] = 72 h, 3 Day Curative, rate 100 ppm, read-out: Disease control SEPTTR 3DC
[9] = 72 h, 3 Day Curative, read-out: Disease control SEPTTR 3DC

| Compound | pest or weed control at 100 ppm (Puccinia triticina; [2]) | pest or weed control at 121.5 g/ha (Puccinia triticina; [3]) | pest or weed control at 100 ppm (Puccinia triticina; [4]) | pest or weed control at 121.5 g/ha (Puccinia triticina; [5]) | pest or weed control at 100 ppm [1, 6] | pest or weed control at 121.5 g/ha [1, 7] | pest or weed control at 100 ppm [1, 8] | pest or weed control at 121.5 g/ha [1, 9] | Disease control PUCCRT 1DP (Puccinia triticina; 1 Day Protectant, rate 100 ppm) | Disease control SEPTTR 1DP ([1]; 1 Day Protectant, rate 100 ppm) | Disease control SEPTTR 3DC ([1]; 3 Day Curative, rate 100 ppm) |
| --- | --- | --- | --- | --- | --- | --- | --- | --- | --- | --- | --- |
| COc1ccnc(C(=O)N[C@H]2COC[C@H](Cc3ccc(C(F)(F)F)cc3)[C@@H](OCC(C)C)[C@H](C)OC2=O)c1OC(C)=O [Compound F65] | 80 to 100% | 80 to 100% | 80 to 100% | 0 to 80% | 80 to 100% | 80 to 100% | 80 to 100% | 80 to 100% | – | – | – |
| COc1ccnc(C(=O)N[C@H]2COC[C@H](Cc3ccc(C(F)(F)F)cc3)[C@@H](OC3CCCC3)[C@H](C)OC2=O)c1O [Compound F28] | 80 to 100% | – | 0 to 80% | – | 80 to 100% | – | 0 to 80% | – | – | – | – |
| COc1ccnc(C(=O)N[C@H]2COC[C@H](Cc3cccc4ccccc34)[C@@H](OCC(C)C)[C@H](C)OC2=O)c1OCOC(C)=O [Compound F87] | 80 to 100% | 80 to 100% | 80 to 100% | 0 to 80% | 80 to 100% | 80 to 100% | 80 to 100% | 80 to 100% | – | – | – |
| CCCO[C@@H]1[C@@H](CCC(C)C)COC[C@H](NC(=O)c2nccc(OC)c2OC(C)=O)C(=O)O[C@H]1C [Compound F70] | 80 to 100% | – | 80 to 100% | – | 80 to 100% | – | 80 to 100% | – | – | – | – |
| COc1ccnc(C(=O)N[C@H]2COC[C@H](Cc3ccc(C(F)(F)F)cc3)[C@@H](OCC(C)C)[C@H](C)OC2=O)c1O [Compound F30] | – | – | – | – | – | – | – | – | A (80-100) | A (80-100) | B (More than 0-Less than 80) |
| COc1ccnc(C(=O)N[C@H]2COC[C@H](Cc3cccc4ccccc34)[C@@H](OC3CCCC3)[C@H](C)OC2=O)c1OCOC(C)=O [Compound F86] | 80 to 100% | – | 80 to 100% | – | 80 to 100% | – | 80 to 100% | – | – | – | – |
| CCCCCO[C@@H]1[C@@H](Cc2ccc(F)cc2)COC[C@H](NC(=O)c2nccc(OC)c2O)C(=O)O[C@H]1C [Compound F19] | 80 to 100% | – | 80 to 100% | – | 80 to 100% | – | 80 to 100% | – | – | – | – |
| CCCCCO[C@@H]1[C@@H](Cc2ccc(F)cc2)COC[C@H](NC(=O)c2nccc(OC)c2OCOC(C)=O)C(=O)O[C@H]1C [Compound F95] | 80 to 100% | – | 80 to 100% | – | 80 to 100% | – | 80 to 100% | – | – | – | – |
| COc1ccnc(C(=O)N[C@H]2COC[C@H](CCc3ccccc3)[C@@H](Oc3ccc(C)cc3)[C@H](C)OC2=O)c1O [Compound F16] | 80 to 100% | – | 0 to 80% | – | 80 to 100% | – | 0 to 80% | – | – | – | – |
| COc1ccnc(C(=O)N[C@H]2COC[C@H](Cc3ccc(F)cc3)[C@@H](OCCCC(F)(F)F)[C@H](C)OC2=O)c1OCOC(C)=O [Compound F93] | 80 to 100% | 80 to 100% | 80 to 100% | 80 to 100% | 80 to 100% | 80 to 100% | 80 to 100% | 80 to 100% | – | – | – |
| COc1ccnc(C(=O)N[C@H]2COC[C@H](CCc3ccccc3)[C@@H](OC(=O)C3CC3)[C@H](C)OC2=O)c1OCOC(=O)C(C)C [Compound F118] | 80 to 100% | 80 to 100% | 80 to 100% | 80 to 100% | 80 to 100% | 80 to 100% | 80 to 100% | 80 to 100% | – | – | – |
